Tested on: MCF-7/ADR cells
Test: Annexin V/PI double staining flow cytometric apoptosis test
Assay type: cell-based, human
Conditions: IC50 value, 24 h
Description: One of the optional mechanisms regarding the lethal action of chemotherapeutic medicines is blocking cell cycle progression, triggering apoptosis with otherwise mutual effect. […] The pivotal relation of the newly synthesized MCF-7/ADR “anticancer drugs” was further evaluated using the Annexin V/PI double staining flow cytometric test. […] In comparison to Doxorubicin’s 30% total apoptosis rate, which was nearly identical to 4a, 4c and 4g, compounds 4d, 4e and 4i were leading with percentages of 41%, 31% and 38%, respectively. Only compounds 4a (8.5%) and 4g (11%) had greater effects on necrosis compared to doxorubicin (5%). Other examined substances caused both early and late apoptosis in all treated cells (Figure 7b). Therefore, MCF-7/ADR cytotoxicity is induced by apoptotic processes, apparently without negative effects on P-gp.
(a) The dot plot of the Annexin V/PI-stained cells, treated with the indicated drugs. […] The data are expressed as the mean ± SD of three independent experiments in triplicate. Significances are shown in comparison to control cells (* p < 0.001). TEXT PRINTED IN THE PICTURE: (a) DOX.: 3.33%; 18.41%; 7.85% | (a) 4a: 8.66%; 18.17%; 4.24% | (a) 4c: 2.74%; 12.73%; 9.11% | (a) 4d: 4.85%; 27.44%; 8.73% | (a) 4e: 5.77%; 9.92%; 15.92% | (a) 4g: 11.04%; 3.94%; 7.38% | (a) 4i: 5.54%; 12.87%; 19.61% DOUBTS OF THE COPYIST ABOUT THIS PICTURE: The quadrant percentages in panel (a) are printed very small and blurred, so 3, 5, 6, 8 and 9 cannot be told apart with certainty. […] They are told apart only by their quadrant in the PI / Annexin V-FITC plot, and are listed upper left, upper right, lower right. / The sample line in each plot reads MCF7/ADR. In the 4g plot it is cut off as 'MCF7/AI'. / The panel 'Cont.' (untreated control: 1.56%, 0.15%, 0.48%) is left out because it is not a substance.

| SMILES | total apoptosis rate | necrosis |
| --- | --- | --- |
| N#CC1=C(N)Oc2ccc3ccc(O)cc3c2C1c1ccc(Cl)cc1Cl (centres unmarked) [4d, 3-Amino-1-(2,4-Dichlorophenyl)-9-Hydroxy-1H-Benzo[f]chromene-2-Carbonitrile] | 41% | – |
| N#CC1=C(N)Oc2ccc3ccc(O)cc3c2C1c1ccc(Cl)c(Cl)c1 (centres unmarked) [4g, 3-Amino-1-(3,4-Dichlorophenyl)-9-Hydroxy-1H-Benzo[f]chromene-2-Carbonitrile] | – | 11% |
| N#CC1=C(N)Oc2ccc3ccc(O)cc3c2C1c1ccc(F)cc1F (centres unmarked) [4a, 3-Amino-1-(2,4-Difluorophenyl)-9-Hydroxy-1H-Benzo[f]chromene-2-Carbonitrile] | – | 8.5% |
| N#CC1=C(N)Oc2ccc3ccc(O)cc3c2C1c1cc(Br)cc(Br)c1 (centres unmarked) [4i, 3-Amino-1-(3,5-Dibromophenyl)-9-Hydroxy-1H-Benzo[f]chromene-2-Carbonitrile] | 38% | – |
| N#CC1=C(N)Oc2ccc3ccc(O)cc3c2C1c1cc(Cl)ccc1Cl (centres unmarked) [4e, 3-Amino-1-(2,5-Dichlorophenyl)-9-Hydroxy-1H-Benzo[f]chromene-2-Carbonitrile] | 31% | – |
